Experimental data as given in patent publication US8513232B2, “Substituted spirocyclic piperidine derivatives as histamine-3 (H3) receptor ligands” (Cephalon, Inc., priority 2008, dated 2013).
pKi: −log10 of the molar value. Read-outs that look alike come from different tables or passages of the source.

What was measured:
[1] = target: T1, rat histamine H3 receptor (Rattus norvegicus, UniProt Q9QYN8); test: Rat H3 radioligand binding ([3H]-N-alpha-methylhistamine, SPA)
T1 construct: encoding the entire 445-amino-acid rat histamine H3 receptor; expressed in transfected cells; membrane preparation
T1 sequence (Q9QYN8 whole entry): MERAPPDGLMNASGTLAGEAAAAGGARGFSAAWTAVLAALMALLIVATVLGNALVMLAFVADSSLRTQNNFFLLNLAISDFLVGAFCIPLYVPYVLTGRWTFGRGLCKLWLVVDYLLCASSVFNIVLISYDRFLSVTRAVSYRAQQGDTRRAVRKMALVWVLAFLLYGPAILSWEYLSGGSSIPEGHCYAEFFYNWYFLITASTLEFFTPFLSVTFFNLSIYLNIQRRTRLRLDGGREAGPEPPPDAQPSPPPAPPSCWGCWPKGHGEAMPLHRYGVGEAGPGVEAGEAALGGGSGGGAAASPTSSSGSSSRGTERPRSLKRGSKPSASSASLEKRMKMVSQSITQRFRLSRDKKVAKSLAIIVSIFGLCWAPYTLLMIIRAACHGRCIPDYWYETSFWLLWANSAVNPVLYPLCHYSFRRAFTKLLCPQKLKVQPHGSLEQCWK
How it was run: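 SPA-bead binding assay using [3H]-N-alpha-methylhistamine (approximately 1 nM final) with test compounds from 0.01 nM to 30 μM. Rat H3 receptor membranes came from stably transfected CHO-A3 cells; incubation ran 4 h at room temperature, in the dark, in Tris pH 7.4 buffer with MgCl2 and BSA. Clobenpropit (10 μM) gave non-specific binding.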

[2] = target: T2, human H3 receptor (Homo sapiens, UniProt Q9Y5N1); test: Human H3 radioligand binding ([3H]-N-alpha-methylhistamine, SPA)
T2 construct: expressed in transfected cells
T2 sequence (Q9Y5N1 whole entry): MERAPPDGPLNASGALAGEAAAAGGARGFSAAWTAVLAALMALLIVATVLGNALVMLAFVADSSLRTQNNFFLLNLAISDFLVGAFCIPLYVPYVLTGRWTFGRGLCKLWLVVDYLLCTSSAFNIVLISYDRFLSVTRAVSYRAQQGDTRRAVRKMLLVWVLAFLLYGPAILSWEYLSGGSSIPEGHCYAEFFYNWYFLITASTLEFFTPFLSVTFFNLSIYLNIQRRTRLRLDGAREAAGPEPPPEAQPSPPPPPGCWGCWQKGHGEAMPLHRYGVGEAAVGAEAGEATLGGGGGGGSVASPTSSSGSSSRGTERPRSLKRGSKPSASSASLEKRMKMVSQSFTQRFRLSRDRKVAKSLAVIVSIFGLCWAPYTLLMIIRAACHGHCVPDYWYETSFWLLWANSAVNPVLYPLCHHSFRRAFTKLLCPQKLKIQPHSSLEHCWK
How it was run: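 Compounds (0.01 nM-30 μM) competed with approximately 1 nM [3H]-N-alpha-methylhistamine for human H3 receptor in membranes of stably transfected CHO cells, 10 μg protein per well, in Tris-HCl pH 7.4/MgCl2/BSA buffer for 4 h at room temperature. Bound radioligand measured by scintillation proximity; 10 μM clobenpropit gave non-specific binding.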

[3] = Rat H3 binding, Table B, Examples 136-362, read-out: rat H3 binding Ki
[4] = Human H3 binding, Table B, Examples 136-362, read-out: hum H3 binding Ki

## O=C(c1ccc(-c2ccc3c(c2)CCC2(CCN(C4CCC4)CC2)O3)cc1F)N1CC[C@H](O)C1 [Example 194]
[1]; [3]
  pKi: > 6.70
other
  melting point: 78 to 80 °C
[2]; [4]
  pKi: > 6.70

## COCCNC(=O)c1ccc(-c2ccc3c(c2)COC2(CCN(C4CCC4)CC2)O3)cn1 [Example 195]
[1]; [3]
  pKi: > 6.70
other
  melting point: 113 to 114 °C
[2]; [4]
  pKi: > 6.70

## Cc1cc(C(=O)Nc2ccc3c(c2)COC2(CCN(C4CCC4)CC2)O3)cc(Cl)n1 [Example 196]
[1]; [3]
  pKi: > 6.70
other
  melting point: 179 to 180 °C
[2]; [4]
  pKi: > 6.70

## O=C1CCN(C(=O)c2ccc(-c3ccc4c(c3)CCC3(CCN(C5CCC5)CC3)O4)cc2)CC1 [Example 197]
[1]
  pKi: > 6.70
other
  melting point: 82.9 to 84.3 °C
[2]
  pKi: > 6.70

## OCCn1cc(-c2ccc3c(c2)CCC2(CCN(C4CCC4)CC2)O3)cn1 [Example 198]
[1]; [3]
  pKi: > 6.70
other
  melting point: 101 to 103 °C
[2]; [4]
  pKi: > 6.70

## Cc1nn(C)c(C)c1-c1ccc2c(c1)COC1(CCN(C3CCC3)CC1)O2 [Example 199]
[1]; [3]
  pKi: > 6.70
other
  melting point: 140 to 143 °C
[2]; [4]
  pKi: > 6.70

## Cc1n[nH]c(C)c1-c1ccc2c(c1)COC1(CCN(C3CCC3)CC1)O2 [Example 200]
[1]; [3]
  pKi: > 6.70
other
  melting point: 110 to 112 °C
[2]; [4]
  pKi: > 6.70

## O=C(c1ccc(-c2ccc3c(c2)COC2(CCN(C4CCC4)CC2)O3)cc1)N1CCC[C@@H](O)C1 [Example 201]
[1]; [3]
  pKi: > 6.70
other
  melting point: 85 to 87 °C
[2]; [4]
  pKi: > 6.70

## COCCNC(=O)c1ccc(-c2ccc3c(c2)COC2(CCN(C4CCC4)CC2)O3)cc1F [Example 202]
[1]; [3]
  pKi: > 6.70
other
  melting point: 107 to 108.5 °C
[2]; [4]
  pKi: > 6.70

## O=C(Nc1ccc2c(c1)COC1(CCN(C3CCC3)CC1)O2)c1ccnnc1 [Example 203]
[1]; [3]
  pKi: > 6.70
other
  melting point: 206 to 207 °C
[2]; [4]
  pKi: > 6.70

## CNC(=O)c1ccc(-c2ccc3c(c2)COC2(CCN(C4CCC4)CC2)O3)cc1C [Example 205]
[1]; [3]
  pKi: > 6.70
other
  melting point: 174 to 176.2 °C
[2]; [4]
  pKi: > 6.70

## O=C(c1ccc(-c2ccc3c(c2)CCC2(CCN(C4CCC4)CC2)O3)cc1)N1CCC(O)CC1 [Example 206]
[1]; [3]
  pKi: > 6.70
other
  melting point: 90.4 to 92.6 °C
[2]; [4]
  pKi: > 6.70

## O=C1N(c2ccccc2)CCN1c1ccc2c(c1)COC1(CCN(C3CCC3)CC1)O2 [Example 207]
[1]; [3]
  pKi: > 6.70
other
  melting point: 195 to 197 °C
[2]; [4]
  pKi: > 6.70

## CCOC(=O)c1ccc(NC(=O)Nc2ccc3c(c2)COC2(CCN(C4CCC4)CC2)O3)cc1 [Example 208]
[1]; [3]
  pKi: 6.00 to 6.70
other
  melting point: 188 to 189 °C
[2]; [4]
  pKi: > 6.70

## COCCNC(=O)c1ccc(-c2ccc3c(c2)CCC2(CCN(C4CCC4)CC2)O3)cn1 [Example 209]
[1]; [3]
  pKi: > 6.70
other
  melting point: 218 to 219 °C
[2]; [4]
  pKi: > 6.70

## O=C1N(c2ccncc2)CCN1c1ccc2c(c1)CCC1(CCN(C3CCC3)CC1)O2 [Example 210]
[1]; [3]
  pKi: > 6.70
other
  melting point: 208 to 210 °C
[2]; [4]
  pKi: > 6.70

## CO[C@H]1CCN(C(=O)c2ccc(-c3ccc4c(c3)CCC3(CCN(C5CCC5)CC3)O4)cc2)C1 [Example 211]
[1]; [3]
  pKi: > 6.70
other
  melting point: 70.2 to 71 °C
[2]; [4]
  pKi: > 6.70

## O=C(c1ccc(-c2ccc3c(c2)CCC2(CCN(C4CCC4)CC2)O3)cc1)N1CCC[C@H](O)C1 [Example 212]
[1]; [3]
  pKi: > 6.70
other
  melting point: 82 to 83.3 °C
[2]; [4]
  pKi: > 6.70

## O=C(c1ccc(Nc2ccc3c(c2)COC2(CCN(C4CCC4)CC2)O3)cc1)N1CC[C@@H](O)C1 [Example 215]
[1]; [3]
  pKi: > 6.70
other
  melting point: 114 to 116 °C
[2]; [4]
  pKi: > 6.70

## CS(=O)(=O)c1ccccc1C(=O)Nc1ccc2c(c1)COC1(CCN(C3CCC3)CC1)O2 [Example 216]
[1]; [3]
  pKi: > 6.70
other
  melting point: 143 to 145 °C
[2]; [4]
  pKi: 6.00 to 6.70

## COCCNC(=O)c1ccc(-c2ccc3c(c2)CCC2(CCN(C4CCC4)CC2)O3)cc1F [Example 217]
[1]; [3]
  pKi: > 6.70
other
  melting point: 190 to 192 °C
[2]; [4]
  pKi: > 6.70

## CNC(=O)c1cnc(-c2ccc3c(c2)CCC2(CCN(C4CCC4)CC2)O3)s1 [Example 218]
[1]; [3]
  pKi: > 6.70
other
  melting point: 201 to 203 °C
[2]; [4]
  pKi: > 6.70

## CNC(=O)c1c(F)cc(-c2ccc3c(c2)COC2(CCN(C4CCC4)CC2)O3)cc1F [Example 220]
[1]; [3]
  pKi: > 6.70
other
  melting point: 212.6 to 214.2 °C
[2]; [4]
  pKi: > 6.70

## O=C(Nc1ccc2c(c1)COC1(CCN(C3CCC3)CC1)O2)c1ccncc1Cl [Example 221]
[1]; [3]
  pKi: > 6.70
other
  melting point: 192 to 193 °C
[2]; [4]
  pKi: > 6.70

## O=C(c1ccc(-c2ccc3c(c2)COC2(CCN(C4CCC4)CC2)O3)cc1F)N1CCC(O)CC1 [Example 222]
[1]; [3]
  pKi: > 6.70
other
  melting point: 105.2 to 106.9 °C
[2]; [4]
  pKi: > 6.70

## N#Cc1ccc(Oc2ccc3c(c2)CCC2(CCN(C4CCC4)CC2)O3)cc1 [Example 223]
[1]; [3]
  pKi: > 6.70
other
  melting point: 237 to 239 °C
[2]; [4]
  pKi: > 6.70

## N#Cc1ccc(C(=O)Nc2ccc3c(c2)CCC2(CCN(C4CCC4)CC2)O3)cc1 [Example 224]
[1]; [3]
  pKi: > 6.70
other
  melting point: 186 to 188 °C
[2]; [4]
  pKi: > 6.70

## CNC(=O)c1ccc(-c2ccc3c(c2)COC2(CCN(C4CCC4)CC2)O3)cc1Cl [Example 225]
[1]; [3]
  pKi: > 6.70
other
  melting point: 276 to 277 °C
[2]; [4]
  pKi: > 6.70

## CNC(=O)c1c(F)cc(-c2ccc3c(c2)CCC2(CCN(C4CCC4)CC2)O3)cc1F [Example 226]
[1]; [3]
  pKi: > 6.70
other
  melting point: 110 to 112 °C
[2]; [4]
  pKi: > 6.70

## Cn1cc(C(=O)Nc2ccc3c(c2)COC2(CCN(C4CCC4)CC2)O3)cn1 [Example 227]
[1]; [3]
  pKi: 6.00 to 6.70
other
  melting point: 227 to 228 °C
[2]; [4]
  pKi: > 6.70

## O=c1cccnn1-c1ccc2c(c1)COC1(CCN(C3CCC3)CC1)O2 [Example 228]
[1]; [3]
  pKi: 6.00 to 6.70
other
  melting point: 173 to 174 °C
[2]; [4]
  pKi: 6.00 to 6.70

## O=C1N(c2ccccc2)CCN1c1ccc2c(c1)CCC1(CCN(C3CCC3)CC1)O2 [Example 229]
[1]; [3]
  pKi: > 6.70
other
  melting point: 182 to 185 °C
[2]; [4]
  pKi: > 6.70

## COC1CCN(C(=O)c2ccc(-c3ccc4c(c3)CCC3(CCN(C5CCC5)CC3)O4)cc2)CC1 [Example 230]
[1]; [3]
  pKi: > 6.70
other
  melting point: 66.8 to 67.5 °C
[2]; [4]
  pKi: > 6.70

## Cc1cc(-c2ccc3c(c2)COC2(CCN(C4CCC4)CC2)O3)ccc1C(=O)NCCO [Example 231]
[1]; [3]
  pKi: > 6.70
other
  melting point: 168.5 to 169.9 °C
[2]; [4]
  pKi: > 6.70

## CNC(=O)c1ccc(-c2ccc3c(c2)CCC2(CCN(C4CCC4)CC2)O3)cc1Cl [Example 232]
[1]; [3]
  pKi: > 6.70
other
  melting point: 144.2 °C
[2]; [4]
  pKi: > 6.70

## COCCNC(=O)c1ccc(-c2ccc3c(c2)CCC2(CCN(C4CCC4)CC2)O3)cc1C [Example 233]
[1]; [3]
  pKi: > 6.70
other
  melting point: 59.8 to 60.9 °C
[2]; [4]
  pKi: > 6.70

## Cc1ccc(C#N)c(Nc2ccc3c(c2)COC2(CCN(C4CCC4)CC2)O3)n1 [Example 236]
[1]; [3]
  pKi: > 6.70
other
  melting point: 56 to 58 °C
[2]; [4]
  pKi: > 6.70

## CNC(=O)c1ccc(-c2ccc3c(c2)CCC2(CCN(C4CCC4)CC2)O3)cc1C [Example 237]
[1]; [3]
  pKi: > 6.70
other
  melting point: 94.7 to 95.6 °C
[2]; [4]
  pKi: > 6.70

## Cc1cc(-c2ccc3c(c2)CCC2(CCN(C4CCC4)CC2)O3)ccc1C(=O)NCCO [Example 238]
[1]; [3]
  pKi: > 6.70
other
  melting point: 78.5 to 79.8 °C
[2]; [4]
  pKi: > 6.70

## O=C(c1ccc(-c2ccc3c(c2)CCC2(CCN(C4CCC4)CC2)O3)cc1F)N1CCC(O)CC1 [Example 240]
[1]; [3]
  pKi: > 6.70
other
  melting point: 102.8 to 104.6 °C
[2]; [4]
  pKi: > 6.70

## c1ccc(Oc2ccc3c(c2)CCC2(CCN(C4CCC4)CC2)O3)nc1 [Example 241]
[1]; [3]
  pKi: > 6.70
other
  melting point: 232 to 234 °C
[2]; [4]
  pKi: > 6.70
